Assay results published in patent publication US20230143752A1, “CANNABIDIOL NANODRUG FORMULATIONS AND METHODS FOR USE OF THE SAME” (priority 2020, published 2023).

Key:
[1] = tested on: mice with Auto-Immune Alopecia; assay: Hair regrowth in alopecia mice, topical treatment daily for 12 weeks; format: in vivo; conditions: for Number of animals per hair regrowth category, Category 0: 0=no hair growth; for Number of animals per hair regrowth category, Category 0 / Number of animals per hair regrowth category, Category 1 / Number of animals per hair regrowth category, Category 2 / Number of animals per hair regrowth category, Category 3 / Number of animals per hair regrowth category, Category 4: six animals per group, topical daily 12 weeks; for Number of animals per hair regrowth category, Category 1: 1=0-25% hair regrowth; for Number of animals per hair regrowth category, Category 2: 2=25-50% hair regrowth; for Number of animals per hair regrowth category, Category 3: 3=50-75% hair regrowth; for Number of animals per hair regrowth category, Category 4: 4=75-100% hair regrowth
Description: An animal study was carried out to determine the effect of a CBD nanoparticulate formulation comprising minoxidil as described herein on the induction of hair regrowth in alopecia mice after 12 weeks. In order to collect preliminary information on the reversal of Alopecia by CBD/minoxidil, a randomized pilot study on 24 animals was performed.
Eight- to ten-month-old mice with Auto-Immune Alopecia were randomized into four groups (six animals per group), receiving topical treatments daily for 12 weeks. Group 1 (Control group) received 0.1 ml of control solution applied topically over the ventral area daily for 12 weeks. Group 2 (CBD group) received 20 μg of CBD in 0.1 ml of control solution applied topically over the ventral area daily for 12 weeks. Group 3 (minoxidil) received 0.1 ml of 5% minoxidil solution applied topically over the ventral area daily for 12 weeks. Group 4 (CBD/minoxidil) received 20 μg of CBD and 5% minoxidil in 0.1 ml solution applied topically over the ventral area daily for 12 weeks.
Mice were sacrificed at the end point of a twelve week observation period, and skin biopsies were obtained. Skin biopsies were processed for histopathology.
Reported categories are as follows: 0=no hair growth, 1=0-25% hair regrowth, 2=25-50% hair regrowth, 3=50-75% hair regrowth, 4=75-100% hair regrowth.

[2] = tested on: CTLL-2 cytotoxic T lymphocytes; assay: In vitro screening platform for immunomodulation (CTLL-2); format: cell-based; conditions: CTLL-2, FIG. 4
Description: An in vitro screening platform for immunomodulation was used to evaluate nanoparticles for efficacy. CTLL-2 (ATCC®TIB-214™) are cytotoxic T lymphocytes that were purchased and cultured according to ATCC protocol. Once confluent, cells were seeded in a 12-well plate at a concentration of 55,000 cells/mL and treated, in triplicates, with the CBD nanoformulations described herein.
A similar experiment was carried out using CBD alone (not in nanoformulations).
In order to investigate options for improving CBD drug delivery in vitro, CBD was also formulated as a carrier-free nanoparticle and evaluated for efficacy.

[3] = alopecia mice, after 12 weeks, FIG. 6

Structure (SMILES) | Number of animals per hair regrowth category, Category 0 [1] | Number of animals per hair regrowth category, Category 1 [1] | Number of animals per hair regrowth category, Category 2 [1] | Number of animals per hair regrowth category, Category 3 [1] | Number of animals per hair regrowth category, Category 4 [1] | effect observed in histopathology [1, 3] | reducing T-lymphocytes compared to controls [2] | hair regrowth, summary ([1]; alopecia mice, 12 weeks topical) | histopathology finding in skin biopsies [1, 3]
Nc1cc(N2CCCCC2)nc(N)[n+]1[O-] [Minoxidil, minoxidil] | 6 | 0 | 0 | 0 | 0 | No significant effect | – | – | –
C=C(C)[C@@H]1CCC(C)=C[C@H]1c1c(O)cc(CCCCC)cc1O [CBD, Cannabidiol] | 6 | 0 | 0 | 0 | 0 | No significant effect | effective | none of the control (vehicle), CBD alone, or minoxidil alone mice showed significant hair regrowth | miniaturization
